# Measurements from patent US20250368666A1, “INDAZOLE COMPOUNDS” (TYRA BIOSCIENCES, INC., priority 2022, published 2025).
# How the values were obtained:
# FGFR1 = target: T1, FGFR1 (Homo sapiens, UniProt P11362); experiment: Kinase binding assay (kinase-tagged T7 phage, affinity beads, qPCR), Kd; conditions: read-out: FGFR1 (Kd nM)
# T1 construct: made in house; host or cells: E. coli (BL21-derived), T7 phage
# Procedure, shortened: (§1)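 Competition binding; kinase-tagged T7 phage lysate vs immobilised biotinylated ligand on streptavidin beads, 0.9% DMSO final. 11-pt 3-fold dilutions, 3 DMSO controls. qPCR of eluted kinase; Kd by Hill fit, slope −1.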
# FGFR2 = target: T2, FGFR2 (Homo sapiens, UniProt P21802); experiment: as above; conditions: read-out: FGFR2 (Kd nM)
# T2 construct: made in house; host or cells: E. coli (BL21-derived), T7 phage
# T2 sequence (P21802 22-821): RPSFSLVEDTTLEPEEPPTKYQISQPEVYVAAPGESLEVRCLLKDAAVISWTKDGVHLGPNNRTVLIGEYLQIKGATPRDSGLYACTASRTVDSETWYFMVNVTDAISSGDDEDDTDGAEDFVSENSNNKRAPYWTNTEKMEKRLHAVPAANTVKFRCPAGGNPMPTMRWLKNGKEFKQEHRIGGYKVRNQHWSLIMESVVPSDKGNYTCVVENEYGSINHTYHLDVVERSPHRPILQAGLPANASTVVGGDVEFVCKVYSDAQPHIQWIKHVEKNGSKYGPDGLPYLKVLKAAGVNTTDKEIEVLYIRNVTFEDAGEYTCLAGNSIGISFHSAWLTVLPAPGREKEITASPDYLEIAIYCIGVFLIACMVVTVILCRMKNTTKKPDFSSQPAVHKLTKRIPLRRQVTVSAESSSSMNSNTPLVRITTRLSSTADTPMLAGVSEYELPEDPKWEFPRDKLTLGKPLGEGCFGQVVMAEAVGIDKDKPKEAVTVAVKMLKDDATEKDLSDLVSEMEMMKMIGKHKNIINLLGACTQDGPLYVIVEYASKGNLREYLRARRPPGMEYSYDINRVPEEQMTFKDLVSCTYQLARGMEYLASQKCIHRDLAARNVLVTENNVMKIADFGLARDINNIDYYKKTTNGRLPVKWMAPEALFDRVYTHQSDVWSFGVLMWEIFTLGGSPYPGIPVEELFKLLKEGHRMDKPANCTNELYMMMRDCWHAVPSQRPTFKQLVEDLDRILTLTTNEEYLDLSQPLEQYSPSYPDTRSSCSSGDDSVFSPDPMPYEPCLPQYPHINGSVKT
# Procedure, shortened: as §1
# FGFR3 = target: T3, FGFR3 (Homo sapiens, UniProt P22607); experiment: as above; conditions: read-out: FGFR3 (Kd nM)
# T3 construct: made in house; host or cells: E. coli (BL21-derived), T7 phage
# T3 sequence (P22607 23-806): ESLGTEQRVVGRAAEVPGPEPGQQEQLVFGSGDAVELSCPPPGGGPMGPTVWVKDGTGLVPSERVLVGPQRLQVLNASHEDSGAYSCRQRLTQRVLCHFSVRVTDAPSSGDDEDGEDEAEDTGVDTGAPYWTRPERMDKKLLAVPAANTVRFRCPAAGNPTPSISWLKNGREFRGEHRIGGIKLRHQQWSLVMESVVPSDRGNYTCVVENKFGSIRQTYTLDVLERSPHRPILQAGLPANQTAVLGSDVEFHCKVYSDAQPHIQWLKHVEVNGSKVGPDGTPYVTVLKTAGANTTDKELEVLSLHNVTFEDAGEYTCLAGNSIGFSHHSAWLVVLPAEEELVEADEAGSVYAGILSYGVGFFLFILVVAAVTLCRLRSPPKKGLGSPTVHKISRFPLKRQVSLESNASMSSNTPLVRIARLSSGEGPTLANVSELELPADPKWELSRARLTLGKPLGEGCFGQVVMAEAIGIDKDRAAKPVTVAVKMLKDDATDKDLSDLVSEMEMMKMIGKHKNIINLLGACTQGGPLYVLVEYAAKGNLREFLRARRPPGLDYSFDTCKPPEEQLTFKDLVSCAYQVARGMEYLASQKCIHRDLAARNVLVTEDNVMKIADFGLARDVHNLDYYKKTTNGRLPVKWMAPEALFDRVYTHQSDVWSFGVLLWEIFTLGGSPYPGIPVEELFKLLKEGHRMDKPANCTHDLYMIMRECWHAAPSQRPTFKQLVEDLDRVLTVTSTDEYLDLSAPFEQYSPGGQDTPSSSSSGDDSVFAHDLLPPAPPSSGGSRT
# Procedure, shortened: as §1
# FGFR3 (V555M) = target: T4, FGFR3 (V555M) (Homo sapiens, UniProt P22607, V555M); experiment: as above; conditions: V555M mutant; read-out: FGFR3 (V555M) (Kd nM)
# T4 construct: made in house; host or cells: E. coli (BL21-derived), T7 phage
# T4 sequence (P22607 23-806 V555M): as the sequence (P22607 23-806) above, with V533M counted along it
# Procedure, shortened: as §1
# FGFR4 = target: T5, FGFR4 (Homo sapiens, UniProt P22455); experiment: as above; conditions: read-out: FGFR4 (Kd nM)
# T5 construct: made in house; host or cells: E. coli (BL21-derived), T7 phage
# T5 sequence (P22455 22-802): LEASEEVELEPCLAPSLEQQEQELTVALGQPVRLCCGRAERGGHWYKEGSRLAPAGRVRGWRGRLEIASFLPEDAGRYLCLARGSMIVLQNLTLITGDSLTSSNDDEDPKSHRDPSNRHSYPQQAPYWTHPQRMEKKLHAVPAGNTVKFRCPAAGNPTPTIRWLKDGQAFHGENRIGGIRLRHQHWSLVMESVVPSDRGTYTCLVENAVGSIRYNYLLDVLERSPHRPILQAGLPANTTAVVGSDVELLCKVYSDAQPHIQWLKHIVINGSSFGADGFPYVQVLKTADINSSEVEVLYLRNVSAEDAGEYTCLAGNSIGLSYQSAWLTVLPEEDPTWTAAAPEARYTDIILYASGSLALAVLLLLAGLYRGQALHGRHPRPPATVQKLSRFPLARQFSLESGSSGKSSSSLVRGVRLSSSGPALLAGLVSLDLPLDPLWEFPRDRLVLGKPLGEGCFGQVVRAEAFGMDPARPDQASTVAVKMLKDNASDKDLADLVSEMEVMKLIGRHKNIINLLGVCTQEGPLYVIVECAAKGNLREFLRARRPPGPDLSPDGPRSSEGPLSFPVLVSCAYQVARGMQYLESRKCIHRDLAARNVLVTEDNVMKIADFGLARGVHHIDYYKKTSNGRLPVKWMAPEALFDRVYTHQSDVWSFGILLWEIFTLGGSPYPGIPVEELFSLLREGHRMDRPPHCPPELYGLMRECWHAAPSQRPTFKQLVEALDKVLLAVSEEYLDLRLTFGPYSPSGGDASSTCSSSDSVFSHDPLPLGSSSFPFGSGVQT
# Procedure, shortened: as §1
# [1] = tested on: KATO-III cell line (FGFR2 amplification); experiment: Cancer cell line cell viability assay (Cell Titer-Glo), 72 hr; format: cell-based; conditions: Homo sapiens, KATO III
# Procedure, shortened: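 5,000-20,000 cells/well o/n; cpd 9-pt 4x dil from 3 μM, n=3; 37° C/5% CO2; CTG 2.0 lumi; % DMSO ctrl; 4PL IC50.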
# [2] = tested on: KG-1 cell line (FGFR 1-fusion); experiment: as above; format: cell-based; conditions: Homo sapiens, KG-1, KG-1 cell line (FGFR1-fusion)
# Procedure, shortened: (§2)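 ATP-based luminescence (Cell Titer-Glo 2.0) measured viability after 72 h (KG-1, RT112/84) or 120 h (MDA-MB-453, HuH7) compound exposure. Dosing was nine 4-fold steps starting at 3 μM, in triplicate, on overnight-plated cells. IC50 came from a variable-slope 4-parameter fit of % DMSO control.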
# [3] = tested on: RT112/84 cell line (FGFR3-fusion); experiment: as above; format: cell-based; conditions: Homo sapiens, RT112/84, RT112/84 cell line (FGFR3-fusion)
# Procedure, shortened: as §2
# T1 sequence (P11362 22-822): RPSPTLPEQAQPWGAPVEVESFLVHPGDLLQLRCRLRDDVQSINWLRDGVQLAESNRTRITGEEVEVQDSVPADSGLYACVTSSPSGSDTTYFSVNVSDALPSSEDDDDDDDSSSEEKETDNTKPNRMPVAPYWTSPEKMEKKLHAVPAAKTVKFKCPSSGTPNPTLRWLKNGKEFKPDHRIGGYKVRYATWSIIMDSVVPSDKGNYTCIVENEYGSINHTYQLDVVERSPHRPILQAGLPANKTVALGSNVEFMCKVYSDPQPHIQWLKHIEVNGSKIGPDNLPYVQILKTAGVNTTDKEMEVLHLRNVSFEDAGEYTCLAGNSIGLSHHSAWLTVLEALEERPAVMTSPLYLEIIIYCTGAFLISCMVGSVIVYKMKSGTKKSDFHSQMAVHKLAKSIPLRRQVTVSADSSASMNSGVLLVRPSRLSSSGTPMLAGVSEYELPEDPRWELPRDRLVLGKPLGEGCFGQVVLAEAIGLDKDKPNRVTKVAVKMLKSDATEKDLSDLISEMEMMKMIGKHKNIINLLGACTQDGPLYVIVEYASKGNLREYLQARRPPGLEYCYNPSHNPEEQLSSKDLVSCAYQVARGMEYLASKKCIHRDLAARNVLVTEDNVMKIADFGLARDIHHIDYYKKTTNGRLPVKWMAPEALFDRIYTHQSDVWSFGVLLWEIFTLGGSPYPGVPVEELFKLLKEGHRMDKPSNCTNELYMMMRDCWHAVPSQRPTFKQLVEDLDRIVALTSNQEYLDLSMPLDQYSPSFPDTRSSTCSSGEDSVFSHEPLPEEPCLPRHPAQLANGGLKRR
SMILES,Kd (FGFR1) [nM],Kd (FGFR2) [nM],Kd (FGFR3) [nM],Kd (FGFR3 (V555M)) [nM],Kd (FGFR4) [nM],IC50 [1] [nM],IC50 [2] [nM],IC50 [3] [nM]
"COc1cc2[nH]nc(-c3cnc(N4CC(C)(NCC5(O)CC5)C4)c(F)c3)c2cc1O[C@H](C)c1c(Cl)cncc1Cl [Example 119, (R)-1-(((1-(5-(5-(1-(3,5-dichloropyridin-4-yl)ethoxy)-6-methoxy-1H-indazol-3-yl)-3-fluoropyridin-2-yl)-3-methylazetidin-3-yl)amino)methyl)cyclo-propan-1-ol]",1 to 50,1 to 50,1 to 50,1 to 50,1 to 50,0.1 to 50,0.1 to 50,0.1 to 50
"COc1cc2[nH]nc(-c3cnc(N4CC(C)(NCC5CC5)C4)c(F)c3)c2cc1O[C@H](C)c1c(Cl)cncc1Cl [Example 126, (R)-N-(cyclopropylmethyl)-1-(5-(5-(1-(3,5-dichloropyridin-4-yl)ethoxy)-6-methoxy-1H-indazol-3-yl)-3-fluoropyridin-2-yl)-3-methylazetidin-3-amine]",1 to 50,1 to 50,1 to 50,1 to 50,1 to 50,0.1 to 50,0.1 to 50,0.1 to 50
"CC(C)NC1(C)CN(c2ncc(-c3n[nH]c4cc(F)c(O[C@H](C)c5c(Cl)cncc5Cl)cc34)cc2F)C1 [Example 127, (R)-1-(5-(5-(1-(3,5-dichloropyridin-4-yl)ethoxy)-6-fluoro-1H-indazol-3-yl)-3-fluoropyridin-2-yl)-N-isopropyl-3-methylazetidin-3-amine]",1 to 50,1 to 50,1 to 50,1 to 50,1 to 50,50 to 200,50 to 200,0.1 to 50
"C[C@@H](Oc1cc2c(-c3cnc(N4CC(C)(N5CCCC5)C4)c(F)c3)n[nH]c2cc1F)c1c(Cl)cncc1Cl [Example 128, (R)-5-(1-(3,5-dichloropyridin-4-yl)ethoxy)-6-fluoro-3-(5-fluoro-6-(3-methyl-3-(pyrrolidin-1-yl)azetidin-1-yl)pyridin-3-yl)-1H-indazole]",1 to 50,1 to 50,1 to 50,1 to 50,1 to 50,0.1 to 50,0.1 to 50,0.1 to 50
"C[C@@H](Oc1cc2c(-c3cnc(N4CC(C)(NCC5CC5)C4)c(F)c3)n[nH]c2cc1F)c1c(Cl)cncc1Cl [Example 132, N-(cyclopropylmethyl)-1-[5-[5-[(1R)-1-(3,5-dichloro-4-pyridyl)ethoxy]-6-fluoro-1H-indazol-3-yl]-3-fluoro-2-pyridyl]-3-methyl-azetidin-3-amine]",1 to 50,1 to 50,1 to 50,1 to 50,1 to 50,50 to 200,50 to 200,0.1 to 50
"CCNC1(C)CN(c2ncc(-c3n[nH]c4ccc(O[C@H](C)c5c(Cl)cncc5Cl)cc34)cc2F)C1 [Example 149, 1-[5-[5-[(1R)-1-(3,5-dichloro-4-pyridyl)ethoxy]-1H-indazol-3-yl]-3-fluoro-2-pyridyl]-N-ethyl-3-methyl-azetidin-3-amine]",1 to 50,1 to 50,1 to 50,1 to 50,1 to 50,0.1 to 50,0.1 to 50,0.1 to 50
"C[C@@H](Oc1ccc2[nH]nc(-c3cnc(N4CC(C)(O)C4)c(F)c3)c2c1)c1c(Cl)cncc1Cl [Example 154, 1-[5-[5-[(1R)-1-(3,5-dichloro-4-pyridyl)ethoxy]-1H-indazol-3-yl]-3-fluoro-2-pyridyl]-3-methyl-azetidin-3-ol]",1 to 50,1 to 50,1 to 50,1 to 50,1 to 50,50 to 200,50 to 200,0.1 to 50
"C[C@@H](Oc1cc2c(-c3cnc(N4CC(C)(N5CCOCC5)C4)c(F)c3)n[nH]c2cc1F)c1c(Cl)cncc1Cl [Example 158, (R)-4-(1-(5-(5-(1-(3,5-Dichloropyridin-4-yl)ethoxy)-6-fluoro-1H-indazol-3-yl)-3-fluoropyridin-2-yl)-3-methylazetidin-3-yl)morpholine]",1 to 50,1 to 50,1 to 50,1 to 50,1 to 50,0.1 to 50,50 to 200,0.1 to 50
COc1cc2[nH]nc(-c3cnc(N4CC(C)(NCC(C)(C)O)C4)c(F)c3)c2cc1O[C@H](C)c1c(Cl)cncc1Cl [Example 159],1 to 50,1 to 50,1 to 50,1 to 50,1 to 50,0.1 to 50,0.1 to 50,0.1 to 50
"COc1cc2[nH]nc(-c3cnc(N4CC(C)(NC[C@H](C)O)C4)c(F)c3)c2cc1O[C@H](C)c1c(Cl)cncc1Cl [Example 160, (S)-1-((1-(5-(5-((R)-1-(3,5-dichloropyridin-4-yl)ethoxy)-6-methoxy-1H-indazol-3-yl)-3-fluoropyridin-2-yl)-3-methylazetidin-3-yl)amino)propan-2-ol]",1 to 50,1 to 50,1 to 50,1 to 50,1 to 50,0.1 to 50,0.1 to 50,0.1 to 50
"COc1cc2[nH]nc(-c3cnc(N4CC(C)(NC[C@@H](C)O)C4)c(F)c3)c2cc1O[C@H](C)c1c(Cl)cncc1Cl [Example 161, (R)-1-((1-(5-(5-((R)-1-(3,5-dichloropyridin-4-yl)ethoxy)-6-methoxy-1H-indazol-3-yl)-3-fluoropyridin-2-yl)-3-methylazetidin-3-yl)amino)propan-2-ol]",1 to 50,1 to 50,1 to 50,1 to 50,1 to 50,0.1 to 50,0.1 to 50,0.1 to 50
"C[C@@H](Oc1ccc2[nH]nc(-c3cnc(N4CC(C)(NCC(C)(C)O)C4)c(F)c3)c2c1F)c1c(Cl)cncc1Cl [Example 170, (R)-1-((1-(5-(5-(1-(3,5-dichloro-pyridin-4-yl)ethoxy)-4-fluoro-1H-indazol-3-yl)-3-fluoropyridin-2-yl)-3-methylazetidin-3-yl)amino)-2-methylpropan-2-ol]",> 1000,> 1000,50 to 300,50 to 300,300 to 1000,> 1000,> 1000,> 1000
"CNC1(C)CN(c2ncc(-c3n[nH]c4ccc(O[C@H](C)c5c(Cl)cncc5Cl)cc34)cc2F)C1 [Example 171, (R)-1-(5-(5-(1-(3,5-dichloropyridin-4-yl)ethoxy)-1H-indazol-3-yl)-3-fluoropyridin-2-yl)-N,3-dimethylazetidin-3-amine]",1 to 50,1 to 50,1 to 50,1 to 50,1 to 50,0.1 to 50,0.1 to 50,0.1 to 50
"Cc1ncc(Cl)c([C@@H](C)Oc2ccc3[nH]nc(-c4cnc(N5CC(C)(NCC6CC6)C5)c(F)c4)c3c2)c1Cl [Example 209, N-(cyclo-propylmethyl)-1-[5-[5-[(1R)-1-(3,5-dichloro-2-methyl-4-pyridyl)ethoxy]-1H-indazol-3-yl]-3-fluoro-2-pyridyl]-3-methyl-azetidin-3-amine]",1 to 50,1 to 50,1 to 50,1 to 50,1 to 50,50 to 200,50 to 200,50 to 200
"Cc1ncc(Cl)c([C@@H](C)Oc2ccc3[nH]nc(-c4cnc(N5CC(C)(CS(C)(=O)=O)C5)c(F)c4)c3c2)c1Cl [Example 210, 5-[(1R)-1-(3,5-dichloro-2-methyl-4-pyridyl)ethoxy]-3-[5-fluoro-6-[3-methyl-3-(methylsulfonyl-methyl)azetidin-1-yl]-3-pyridyl]-1H-indazole]",50 to 300,1 to 50,1 to 50,1 to 50,1 to 50,50 to 200,200 to 1000,0.1 to 50
"C[C@@H]1CN(C2(C)CN(c3ccc(-c4n[nH]c5ccc(O[C@H](C)c6c(Cl)cncc6Cl)cc45)cn3)C2)CCO1 [Example 211, (R)-4-(1-(5-(5-((R)-1-(3,5-dichloropyridin-4-yl)ethoxy)-1H-indazol-3-yl)pyridin-2-yl)-3-methylazetidin-3-yl)-2-methylmorpholine]",1 to 50,1 to 50,1 to 50,1 to 50,1 to 50,0.1 to 50,50 to 200,0.1 to 50
